In one experiment the target is T1, ER-α in MCF-7 cells (Homo sapiens, UniProt P03372).
T1 sequence (P03372 1-595): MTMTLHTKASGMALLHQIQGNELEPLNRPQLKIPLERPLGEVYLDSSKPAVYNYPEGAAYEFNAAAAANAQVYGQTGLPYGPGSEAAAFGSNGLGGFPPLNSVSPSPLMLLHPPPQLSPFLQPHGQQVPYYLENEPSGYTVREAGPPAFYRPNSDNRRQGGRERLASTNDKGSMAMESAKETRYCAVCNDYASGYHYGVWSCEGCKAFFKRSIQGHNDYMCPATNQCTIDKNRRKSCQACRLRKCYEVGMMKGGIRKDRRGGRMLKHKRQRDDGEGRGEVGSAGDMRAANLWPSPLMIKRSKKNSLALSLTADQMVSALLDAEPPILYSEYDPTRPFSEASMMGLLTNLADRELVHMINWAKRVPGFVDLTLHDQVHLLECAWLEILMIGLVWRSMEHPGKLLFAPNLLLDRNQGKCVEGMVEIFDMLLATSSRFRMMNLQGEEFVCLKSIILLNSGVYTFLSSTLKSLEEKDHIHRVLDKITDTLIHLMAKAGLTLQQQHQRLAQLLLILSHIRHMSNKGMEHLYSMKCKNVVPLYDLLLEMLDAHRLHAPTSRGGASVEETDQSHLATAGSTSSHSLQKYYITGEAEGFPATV
Kind of experiment: Breast cancer cell ER-α in cell western assay (SP1). Also on record: endogenous in cells; host or cells: MCF-7. Conditions: 4 or 24 hr post compound addition; for Emax: MCF7, SP1 antibody, read-out: ER-α In Cell Western Assay (SP1) Max Response; for DC50: SP1 antibody, read-out: ER-α In Cell Western Assay (SP1) IC50. It counts as cell-based. The gist of the method:
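ER-α protein levels were measured in MCF-7 cells after 4 or 24 hr compound exposure (final 0.3–0.000003 μM) in RPMI containing 10% charcoal-stripped FBS.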

Another experiment deals with MCF-7 cells. As to the kind of experiment: Breast cancer cell viability assay (CellTiter-Glo, 5 days). In kind it is cell-based. Conditions: 5 days' compound exposure; for IC50: Homo sapiens, MCF7, 120 h. In outline:
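Eleven-point semilog compound series, final 0.3-0.000003 μM, added to overnight-adhered MCF-7 cells (320/well; RPMI, 10% FBS, 20 mM HEPES) for 5 days. Viability read by CellTiter-Glo luminescence, background from medium without cells subtracted, expressed relative to untreated cells.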

On to `CC/C(=C(/c1ccc(/C=C/C(=O)NS(C)(=O)=O)cc1)c1ccc2[nH]ncc2c1)c1ccc(F)cc1Cl` [Compound 408, (E)-3-(4-((E)-2-(2-Chloro-4-fluorophenyl)-1-(1H-indazol-5-yl)but-1-en-1-yl)phenyl)-N-(methylsulfonyl)acrylamide], for which, at ER-α in MCF-7 cells, the Emax was not below 40% and the DC50 was not above 100 nM. Further, in the experiment on MCF-7 cells, the “MCF7 Viability Assay Max Response” value was “++ (++ = a single % value ≧ 40%)” and the IC50 was not above 100 nM.

As for `CC/C(=C(/c1ccc(/C=C/C(=O)O)cc1)c1ccc2[nH]ncc2c1)c1ccc(S(=O)(=O)C(F)(F)F)cc1` [Compound 288], at ER-α in MCF-7 cells, the Emax is not below 40% and the DC50 was not above 100 nM. Moreover, in the experiment with MCF-7 cells, the “MCF7 Viability Assay Max Response” value is recorded as “++ (++ = a single % value ≧ 40%)” and the IC50 was more than 100 nM.

Take `CC/C(=C(/c1ccc(/C=C/C(=O)O)cc1)c1ccc2[nH]ncc2c1)c1cccc2occc12` [Compound 96, (E)-3-(4-((E)-2-(Benzofuran-4-yl)-1-(1H-indazol-5-yl)but-1-en-1-yl)phenyl)acrylic acid]: at ER-α in MCF-7 cells, the Emax is not below 40% and the DC50 is not above 100 nM. In addition, in the experiment with MCF-7 cells, the “MCF7 Viability Assay Max Response” value is listed as “++ (++ = a single % value ≧ 40%)” and the IC50 is not above 100 nM.

With `CC/C(=C(/c1ccc(/C=C/C(=O)O)cc1)c1cc(F)c2[nH]ncc2c1)c1ccncc1Cl` [Compound 245, (E)-3-(4-((E)-2-(3-chloropyridin-4-yl)-1-(7-fluoro-1H-indazol-5-yl)but-1-en-1-yl)phenyl)acrylic acid], on ER-α in MCF-7 cells, the Emax is not below 40% and the DC50 was not above 100 nM. In the experiment on MCF-7 cells, the “MCF7 Viability Assay Max Response” value is “++ (++ = a single % value ≧ 40%)” and the IC50 was not above 100 nM.

For the compound `CNC(=O)/C=C/c1ccc(/C(=C(\c2ccccc2)C2CCC2)c2ccc3c(cnn3C)c2)cc1` [Compound 411, (E)-3-(4-((E)-2-Cyclobutyl-1-(1-methyl-1H-indazol-5-yl)-2-phenylvinyl)phenyl)-N-methylacrylamide], on ER-α in MCF-7 cells, the Emax is not below 40% and the DC50 is not above 100 nM. Also, in the experiment on MCF-7 cells, the “MCF7 Viability Assay Max Response” value is “++ (++ = a single % value ≧ 40%)” and the IC50 was not above 100 nM.

For the compound `CC/C(=C(/c1ccc(/C=C/C(=O)O)cc1)c1ccc2cccnc2c1)c1ccc(F)cc1Cl` [Compound 289, (E)-3-(4-((E)-2-(2-Chloro-4-fluorophenyl)-1-(quinolin-7-yl)but-1-en-1-yl)phenyl)acrylic acid], at ER-α in MCF-7 cells, the Emax was not below 40% and the DC50 was not above 100 nM. In the experiment with MCF-7 cells, the “MCF7 Viability Assay Max Response” value is listed as “++ (++ = a single % value ≧ 40%)” and the IC50 is more than 100 nM.

Take `CC/C(=C(/c1ccc(/C=C/C(=O)O)cc1)c1cc2cn[nH]c2cn1)c1ccccc1` [Compound 81, (E)-3-(4-((E)-2-Phenyl-1-(1H-pyrazolo[3,4-c]pyridin-5-yl)but-1-en-1-yl)phenyl)acrylic acid]: on ER-α in MCF-7 cells, the Emax was not below 40% and the DC50 was more than 100 nM. Besides, in the experiment with MCF-7 cells, the “MCF7 Viability Assay Max Response” value is recorded as “++ (++ = a single % value ≧ 40%)” and the IC50 is more than 100 nM.

`CC/C(=C(/c1ccc(/C=C/C(=O)NS(=O)(=O)Cc2ccccc2)cc1)c1ccc2[nH]ncc2c1)c1ccc(F)cc1Cl` [Compound 429, (E)-N-(Benzylsulfonyl)-3-(4-((E)-2-(2-chloro-4-fluorophenyl)-1-(1H-indazol-5-yl)but-1-en-1-yl)phenyl)acrylamide]: on ER-α in MCF-7 cells, the Emax is not below 40% and the DC50 is not above 100 nM. In the experiment with MCF-7 cells, the “MCF7 Viability Assay Max Response” value is recorded as “++ (++ = a single % value ≧ 40%)” and the IC50 was not above 100 nM.

For `CC/C(=C(/c1ccc(/C=C/C(=O)NS(C)(=O)=O)cc1)c1ccc2scnc2c1)c1ccc(F)cc1Cl` [Compound 416, (E)-3-(4-((E)-1-(Benzo[d]thiazol-5-yl)-2-(2-chloro-4-fluorophenyl)but-1-en-1-yl)phenyl)-N-(methylsulfonyl)acrylamide], at ER-α in MCF-7 cells, the Emax was not below 40% and the DC50 is not above 100 nM. In the experiment on MCF-7 cells, the “MCF7 Viability Assay Max Response” value is given as “++ (++ = a single % value ≧ 40%)” and the IC50 is not above 100 nM.

`CC/C(=C(/c1ccc(/C=C/C(=O)O)cc1)c1ccc2[nH]ncc2c1)c1cccc(Oc2ncccn2)c1` [Compound 363, (E)-3-(4-((E)-1-(1H-Indazol-5-yl)-2-(3-(pyrimidin-2-yloxy)phenyl)but-1-en-1-yl)phenyl)acrylic acid]: at ER-α in MCF-7 cells, the Emax is not below 40% and the DC50 is not above 100 nM. Besides, in the experiment with MCF-7 cells, the “MCF7 Viability Assay Max Response” value is on record as “++ (++ = a single % value ≧ 40%)” and the IC50 is not above 100 nM.

With `Cc1cscc1/C(=C(\c1ccc(/C=C/C(=O)O)cc1)c1ccc2[nH]nc(F)c2c1)C1CCC1` [Compound 313, (E)-3-(4-((E)-2-Cyclobutyl-1-(3-fluoro-1H-indazol-5-yl)-2-(4-methylthiophen-3-yl)vinyl)phenyl)acrylic acid], at ER-α in MCF-7 cells, the Emax was not below 40% and the DC50 was not above 100 nM. In the experiment with MCF-7 cells, the “MCF7 Viability Assay Max Response” value is “++ (++ = a single % value ≧ 40%)” and the IC50 was not above 100 nM.

Consider `CC/C(=C(/c1ccc(/C=C/C(=O)O)cc1)c1ccc2[nH]ncc2c1)c1cccc(Oc2ccccc2F)c1` [Compound 367, (E)-3-(4-((E)-2-(3-(2-Fluorophenoxy)phenyl)-1-(1H-indazol-5-yl)but-1-en-1-yl)phenyl)acrylic acid], for which, at ER-α in MCF-7 cells, the Emax is not below 40% and the DC50 is not above 100 nM. Besides, in the experiment on MCF-7 cells, the “MCF7 Viability Assay Max Response” value is reported as “++ (++ = a single % value ≧ 40%)” and the IC50 is not above 100 nM.

With `CC/C(=C(/c1ccc(/C=C/C(=O)NOC)cc1)c1ccc2[nH]ncc2c1)c1ccc(F)cc1Cl` [Compound 421, (E)-3-(4-((E)-2-(2-Chloro-4-fluorophenyl)-1-(1H-indazol-5-yl)but-1-en-1-yl)phenyl)-N-methoxyacrylamide], on ER-α in MCF-7 cells, the Emax was not below 40% and the DC50 is not above 100 nM. In the experiment with MCF-7 cells, the “MCF7 Viability Assay Max Response” value was “++ (++ = a single % value ≧ 40%)” and the IC50 was not above 100 nM.

As to `CC/C(=C(/c1ccc(/C=C/C(=O)O)cc1)c1ccc2[nH]ncc2c1)c1cccc(OCCOC)c1` [Compound 341, (E)-3-(4-((E)-1-(1H-Indazol-5-yl)-2-(3-(2-methoxyethoxy)phenyl)but-1-en-1-yl)phenyl)acrylic acid], at ER-α in MCF-7 cells, the Emax is not below 40% and the DC50 was not above 100 nM. For the same compound, in the experiment with MCF-7 cells, the “MCF7 Viability Assay Max Response” value is “++ (++ = a single % value ≧ 40%)” and the IC50 is not above 100 nM.

Regarding `CC/C(=C(/c1ccc(/C=C/C(=O)O)cc1)c1ccc2[nH]ncc2c1)c1ccc2occc2c1` [Compound 247, (E)-3-(4-((E)-2-(Benzofuran-5-yl)-1-(1H-indazol-5-yl)but-1-en-1-yl)phenyl)acrylic acid], on ER-α in MCF-7 cells, the Emax is not below 40% and the DC50 was not above 100 nM. Further, in the experiment on MCF-7 cells, the “MCF7 Viability Assay Max Response” value is “++ (++ = a single % value ≧ 40%)” and the IC50 is not above 100 nM.

As for `CC/C(=C(/c1ccc(/C=C/C(=O)O)cc1)c1ccc2cncn2c1)c1ccccc1` [Compound 133, (E)-3-(4-((E)-1-(Imidazo[1,5-a]pyridin-6-yl)-2-phenylbut-1-en-1-yl)phenyl)acrylic acid], at ER-α in MCF-7 cells, the Emax is not below 40% and the DC50 was more than 100 nM. In the experiment with MCF-7 cells, the “MCF7 Viability Assay Max Response” value is on record as “++ (++ = a single % value ≧ 40%)” and the IC50 is more than 100 nM.

For the compound `CC/C(=C(/c1ccc(/C=C/C(=O)O)cc1)c1ccc2[nH]ncc2c1)c1cccc(Oc2ccc(C(F)(F)F)cn2)c1` [Compound 381, (E)-3-(4-((E)-1-(1H-Indazol-5-yl)-2-(3-((5-(trifluoromethyl)pyridin-2-yl)oxy)phenyl)but-1-en-1-yl)phenyl)acrylic acid], at ER-α in MCF-7 cells, the Emax is not below 40% and the DC50 was not above 100 nM. Further, in the experiment on MCF-7 cells, the “MCF7 Viability Assay Max Response” value is “++ (++ = a single % value ≧ 40%)” and the IC50 is not above 100 nM.

As to `O=C(O)/C=C/c1ccc(/C(=C(\c2ccccc2)C2CCC2)c2ccc3scnc3c2)cc1` [Compound 286, (E)-3-(4-((E)-1-(Benzo[d]thiazol-5-yl)-2-cyclobutyl-2-phenylvinyl)phenyl)acrylic acid], on ER-α in MCF-7 cells, the Emax was not below 40% and the DC50 was not above 100 nM. Besides, in the experiment on MCF-7 cells, the “MCF7 Viability Assay Max Response” value was “++ (++ = a single % value ≧ 40%)” and the IC50 is not above 100 nM.

Regarding `CC/C(=C(/c1ccc(/C=C/C(=O)O)cc1)c1ccc2[nH]ncc2c1F)c1cccc(Oc2ccccn2)c1` [Compound 375, (E)-3-(4-((E)-1-(4-Fluoro-1H-indazol-5-yl)-2-(3-(pyridin-2-yloxy)phenyl)but-1-en-1-yl)phenyl)acrylic acid], on ER-α in MCF-7 cells, the Emax is not below 40% and the DC50 was not above 100 nM. Further, in the experiment with MCF-7 cells, the “MCF7 Viability Assay Max Response” value is given as “++ (++ = a single % value ≧ 40%)” and the IC50 was not above 100 nM.

Broadly, the IC50 is the concentration at which inhibition is half-maximal. Higher therefore signals weaker potency.
